Data as given in paper PMC9101684, “Hempseed (Cannabis sativa) Peptide H3 ([sequence]) Exerts Cholesterol-Lowering Effects in Human Hepatic Cell Line” (Nutrients, 2022).
Like-named read-outs stand apart in the source and are kept apart here.

Columns and labels:
AMPK [1] = conditions: cited from earlier work
Excerpt: Furthermore, it is also known that statins are able to activate AMPK [44] with the consequence of a synergistic inhibition of HMGCoAR activity, its direct target. In agreement with these evidences, our results provide a clear indication that, similarly to statins, peptide H3 increases the phosphorylation level of AMPK at the Thr172 residue of the catalytic subunit, which in turn produces an inhibition of ...

HMGCoAR [2] = tested on: HMGCoAR; design: method as in 5 sources, ref 24 = [24]; PMID 2513368; doi:10.1016/S0022-2275(20)38255-9; 24. Mosley S.T. Kalinowski S.S. Schafer B.L. Tanaka R.D. Tissue-selective acute effects of inhibitors of 3-hydroxy-3-methylglutaryl coenzyme A reductase on cholesterol biosynthesis in lens J. Lipid Re ||| ref 32 = [32]; PMID 25690031; doi:10.3390/ijms16024150; 32. Soares R.A.M. Mendonça S. De Castro L.Í.A. Menezes A.C.C.C.C. Arêas J.A.G. Major Peptides from Amaranth (Amaranthus cruentus) Protein Inhibit HMG-CoA Reductase Activity Int. J. Mol. Sci. 2015 16 4 ||| ref 33 = [33]; doi:10.1016/j.jff.2015.02.021; 33. Lammi C. Zanoni C. Arnoldi A. […], […], and LPYP, three peptides from soy glycinin, modulate cholesterol metabolism in HepG2 cells through the activation of the LDLR-SREBP2 pathway J. Fu ||| ref 34 = [34]; PMID 26310992; doi:10.1021/acs.jafc.5b03497; 34. Lammi C. Zanoni C. Arnoldi A. Vistoli G. Two Peptides from Soy β-Conglycinin Induce a Hypocholesterolemic Effect in HepG2 Cells by a Statin-Like Mechanism: Comparative in Vitro and in Silico Model ||| ref 11, 12 = [11]; PMID 29096438; doi:10.1021/acs.jafc.7b03590; 11. Aiello G. Lammi C. Boschin G. Zanoni C. Arnoldi A. Exploration of Potentially Bioactive Peptides Generated from the Enzymatic Hydrolysis of Hempseed Proteins J. Agric. Food Chem. 2017 65 10174 101 || [12]; PMID 28931275; doi:10.1021/acs.jafc.7b02742; 12. Zanoni C. Aiello G. Arnoldi A. Lammi C. Hempseed Peptides Exert Hypocholesterolemic Effects with a Statin-Like Mechanism J. Agric. Food Chem. 2017 65 8829 8838 10.1021/acs.jafc.7b02742 28931275; conditions: cited from earlier work
Excerpt: Th ... || CVD is a multifactorial pathology in which oxidative and inflammatory status as well as hypercholesterolemia are among the main risk factors.

HepG2 cells = assay: Fluorescent LDL uptake by HepG2 cells; format: cell-based, human; conditions: pravastatin 1.0 µM, 24 h, then LDL-DyLight 550 for 2 h at 37 °C, fluorescence, versus control; p < 0.0001; mean ± S.D., three experiments in triplicate
Description: treatment, the culture medium was replaced with 50 µL/well LDL-DyLight™ 550 working solution (Cayman Chemical Company, Ann Arbor, MI, USA) prepared in DMEM without FBS and antibiotics. The cells were additionally incubated for 2 h at 37 °C and then the culture medium was aspirated and replaced with PBS (100 µL/well). The degree of LDL uptake was measured using the Synergy H1 fluorescent plate reader (Winooski, VT, USA) (excitation and […]

LDLR [3] = assay: Western blot, total LDLR in HepG2 cells; format: cell-based, human; conditions: pravastatin 1.0 µM, 24 h, versus control; p < 0.001; mean ± S.D., three independent experiments in duplicate
Description: (§1) Immunoblotting experiments were performed using an optimized protocol. Details are available in the Supplementary Materials. […]
(§2) 2.7. Western Blot Analysis
(§3) Immunoblotting experiments were performed using optimized protocol […]
(§4) µM of H3 for 24 h. After each treatment, the supernatants were collected and stored at -20 °C; cells were scraped in 40 µL ice-cold lysis buffer (RIPA buffer + inhibitor cocktail + 1:100 PMSF + 1:100 Na-orthovanadate + 1:1000 β-mercaptoethanol) and transferred in ice-cold microcentrifuge tubes. After centrifugation at 13,300 g for 15 min at 4 °C, the supernatants were recovered and transferred into new ice-cold tubes. […]
(§5) Cocktail) on ice for 20 min and then centrifuged 12000 rpm for 10 min at 4°C and the supernatant was collected (nucleus isolate). Total proteins were quantified […]
(§6) Sodium Dodecyl Sulfate-Polyacrylamide (SDS-PAGE) gel at 130 V for 45 min.
(§7) Subsequently, the gel was pre-equilibrated in H2O for 5 min at room temperature (RT) and transferred to a nitrocellulose membrane (Mini nitrocellulose Transfer Packs,) using a Trans-Blot Turbo at 1.3 A, 25 V for 7 min. Target proteins, on milk or BSA blocked membrane, were detected by primary antibodies as follows: anti-SREBP-2, anti-LDLR, anti-HMGCoAR, anti-PCSK9, anti HNF1-α, anti-p-HMGCoAR, anti-p-AMPK and anti-β-actin. […]

AMPK [4] = assay: Western blot, p-AMPK (threonine 172) in HepG2 cells; format: cell-based, human; conditions: pravastatin 1.0 µM, 24 h, versus control; p < 0.05; mean ± S.D., three independent experiments in duplicate
Description: as §1, §2, §3, §4, §5, §6, §7

p-HMGCoAR = assay: Western blot, p-HMGCoAR (serine 872) in HepG2 cells; format: cell-based, human; conditions: pravastatin 1.0 µM, 24 h, versus control; p < 0.01; mean ± S.D., three independent experiments in duplicate
Description: as §1, §2, §3, §4, §5, §6, §7

HNF1-α = assay: Western blot, HNF1-α in HepG2 cells; format: cell-based, human; conditions: pravastatin 1.0 µM, 24 h, versus control; p < 0.0001; mean ± S.D., three experiments in duplicate
Description: as §1, §2, §3, §4, §5, §6, §7

PCSK9 [5] = assay: Western blot, intracellular PCSK9 in HepG2 cells; format: cell-based, human; conditions: pravastatin 1.0 µM, 24 h, versus control; p < 0.0001; mean ± S.D., three experiments in duplicate
Description: as §1, §2, §3, §4, §5, §6, §7

SREBP-2 = assay: Western blot, mature and precursor SREBP-2 in HepG2 cells; format: cell-based, human; conditions: pravastatin 1.0 µM, 24 h, versus untreated
Description: as §1, §2, §3
µM of H3 for 24 h. After each treatment, the supernatants were collected and stored at -20 °C; cells were scraped in 40 µL ice-cold lysis buffer (RIPA buffer + inhibitor cocktail + 1:100 PMSF + 1:100 Na-orthovanadate + 1:1000 β-mercaptoethanol) and transferred in ice-cold microcentrifuge tubes. After centrifugation at 13,300 g for 15 min at 4 °C, the supernatants were recovered and transferred into new ice-cold tubes. For the mature SREBP-2 nuclear […]
for at 37 °C under 5% CO2 atmosphere for 24h. Therefore, cells were collected with PBS ice-cold and centrifuged 1500 rmp for 5 min at 4°C. The pellet was incubated with 20 µL of Nuclei Isolation Buffer A (10 mM HEPES pH 7.9, 1.5 mM MgCl2, 10 mM KCl, 0.2 mM EDTA, 0.1% β-mercaptoethanol, 0.5 mM PMSF, 0.1 % NP-40, one cOmplete™ Mini, EDTA-free Protease Inhibitor Cocktail) on ice for 10 min and then centrifuged 12000 rpm for 10 min at 4°C. Subsequently, the pellet was incubated with 20 µL of Nuclei Isolation Buffer B (20 mM HEPES […]
0.5 mM PMSF, 0.42 M NaCl, one cOmplete™ Mini, EDTA-free Protease Inhibitor Cocktail) on ice for 20 min and then centrifuged 12000 rpm for 10 min at 4°C and the supernatant was collected (nucleus isolate). Total proteins were quantified […]
as §7, with “anti-β-actin. Secondary antibodies conjugated with HRP and a chemiluminescent reagent were used to visualize target proteins and their signal was quantified using the Image Lab Software (Biorad, Hercules,” for “anti-β-actin.”

HMGCoAR [6] = assay: Western blot, HMGCoAR protein in HepG2 cells; format: cell-based, human; conditions: pravastatin 1.0 µM, 24 h, versus control; p < 0.01; mean ± S.D., three independent experiments in duplicate
Description: as §1, §2, §3, §4, §5, §6, §7

LDLR [7] = assay: In-Cell Western (ICW), LDLR localized on cellular membranes of HepG2 cells; format: cell-based, human; conditions: pravastatin 1.0 µM, 24 h, versus control, p < 0.0001, mean ± S.D., three experiments in triplicate
Description: For the experiments, a total of 3 × 10^4 HepG2 cells/well were seeded in 96-well plates. The following day, the cells were washed with PBS and then starved overnight (O/N) in DMEM without FBS nor antibiotics.
HMGCoAR were provided in the HMGCoAR Assay Kit (Sigma Aldrich SRL, Milan, Italy). The experiments were carried out following the manufacturer instructions at 37 °C. In particular, each reaction (200 µL) was prepared adding the reagents in the following order: 1 X assay buffer, a 10–1000 µM doses of H3 or vehicle (C), the NADPH (4 µL), the substrate solution (12 µL), and finally the HMGCoAR (catalytic domain) (2 µL). Subsequently, the samples were mixed and the absorbance at 340 nm read by the microplate reader Synergy H1
In-Cell Western (ICW) Assay
For the experiments, a total of 3 X 10 4 HepG2 cells/well were seeded in 96-well plates. The following day, cells were washed with PBS and then starved overnight (O/N) in DMEM without FBS and antibiotics.
Subsequently, they were fixed in 4% paraformaldehyde for 20 min at room temperature (RT). […] The reaction was stopped with 2 M H2SO4 and then the absorbance at 450 nm was measured using the microplate reader Synergy H1 (Winooski, VT, USA). After the read, cells were stained by adding 1 X Janus Green stain, incubating for 5 min at RT. […]

PCSK9 [8] = assay: ELISA, mature PCSK9 secreted by HepG2 cells; format: cell-based, human
[9] = from soybean glycinin hydrolysis with pepsin, read-out: IC50, HMGCoAR (soybean glycinin peptides)
[10] = LTFPGSAED from lupin protein, VGVL from amaranth protein, hydrolysis with pepsin, read-out: IC50, HMGCoAR (literature peptides)
[11] = from soybean β-conglycinin, read-out: IC50, HMGCoAR (soybean β-conglycinin peptides)

## LILPKHSDAD [peptide from lupin protein hydrolysis with pepsin]
AMPK [1]; lupin peptides
  mechanism of HMGCoAR inhibition (AMPK phosphorylation): share the same mechanism of HMGCoAR inhibition

## IAVPGEVA [peptide from soybean glycinin hydrolysis with pepsin]
HMGCoAR [2]; [9]
  IC50: 222 µM
AMPK [1]; soybean peptides
  mechanism of HMGCoAR inhibition (AMPK phosphorylation): share the same mechanism of HMGCoAR inhibition

## VGVL [peptide from amaranth protein hydrolysis with pepsin]
HMGCoAR [2]; [10]
  IC50: 50 µM

## LPYP [peptide from soybean glycinin hydrolysis with pepsin]
HMGCoAR [2]; [9]
  IC50: 300 µM
AMPK [1]; soybean peptides
  mechanism of HMGCoAR inhibition (AMPK phosphorylation): share the same mechanism of HMGCoAR inhibition

## YVVNPDNDEN [peptide from soybean β-conglycinin]
HMGCoAR [2]; [11]
  IC50: 150 µM

## LTFPGSAED [peptide from lupin protein hydrolysis with pepsin]
HMGCoAR [2]; [10]
  IC50: 68.4 µM
AMPK [1]; lupin peptides
  mechanism of HMGCoAR inhibition (AMPK phosphorylation): share the same mechanism of HMGCoAR inhibition

## CC[C@H](C)C(=O)O[C@H]1C[C@H](O)C=C2C=C[C@H](C)[C@H](CC[C@@H](O)C[C@@H](O)CC(=O)O)[C@H]21 [pravastatin]
HepG2 cells
  LDL uptake: 226.9 ± 11.05%
LDLR [3]
  total LDLR protein level: 140.8 ± 15.35%
AMPK [4]
  AMPK phosphorylation (threonine 172): 122.7 ± 5.23%
p-HMGCoAR
  phosphorylation level of HMGCoAR (serine 872): 143.5 ± 4.64%
HMGCoAR [2]; read-out: IC50, HMGCoAR (literature value for pravastatin)
  IC50: 0.47 µM
HNF1-α
  HNF1-α level (activation up to): 116.9 ± 3.21%
PCSK9 [5]
  PCSK9 protein level (increase up to): 118.8 ± 6.11%
SREBP-2; cytoplasmic fraction, p < 0.05, Figure S2
  precursor SREBP-2 (125 KDa) protein level: 140.8 ± 9.0%
SREBP-2; nuclear fraction, p < 0.0001, mean ± S.D., three independent experiments in duplicate
  mature nuclear SREBP-2 (65 KDa) protein level: 152.3 ± 8.2%
SREBP-2; total lysate, p < 0.001, mean ± S.D., three independent experiments in duplicate
  total mature SREBP-2 (65 KDa) protein level: 134.9 ± 17.3%
HMGCoAR [6]
  HMGCoAR protein level: 129.3 ± 9.33%
LDLR [7]
  LDLR protein level on cellular membrane: 127.3 ± 14.31%
PCSK9 [8]
  release of PCSK9 (increase up to): 119.6 ± 1.18%

## YVVNPDNNEN [peptide from soybean β-conglycinin]
HMGCoAR [2]; [11]
  IC50: 200 µM

## IAVPTGVA [peptide from soybean glycinin hydrolysis with pepsin]
HMGCoAR [2]; [9]
  IC50: 247 µM
AMPK [1]; soybean peptides
  mechanism of HMGCoAR inhibition (AMPK phosphorylation): share the same mechanism of HMGCoAR inhibition
